Test results from the Deep4Chem optical property database.
One block for each molecule: values may come before it.

Experiment: solvent given as SMILES

SMILES: c1ccc(N2c3ccccc3Sc3cc(-c4cccc5nc6ccccc6cc45)ccc32)cc1
fluorescence lifetime (in CC#N): 7.58 ns
fluorescence lifetime (in CCCCCC): 2.05 ns
fluorescence lifetime (in CCOCC): 3.96 ns
fluorescence lifetime (in ClCCl): 3.32 ns

SMILES: CCN(CC)c1ccc2cc(/C(Cl)=C/C=C/C(=C(C#N)C#N)c3ccc(N(c4ccccc4)c4ccccc4)cc3)c(=O)oc2c1
fluorescence lifetime (in CC(C)=O): 1.51 ns
fluorescence lifetime (in CCOC(C)=O): 2.42 ns
fluorescence lifetime (in CN(C)C=O): 0.21 ns
fluorescence lifetime (in CS(C)=O): 0.18 ns
fluorescence lifetime (in Cc1ccccc1): 1.95 ns
fluorescence lifetime (in ClCCl): 1.56 ns

SMILES: CC1(C)C(/C=C/C2=C(c3ccc(C(=O)O)cc3)C(=C/C=C3/N(CCCCS(=O)(=O)[O-])c4ccccc4C3(C)C)/CC2)=[N+](CCCCS(=O)(=O)[O-])c2ccccc21
fluorescence lifetime (in CC(C)=O): 1.13 ns
fluorescence lifetime (in CCO): 0.87 ns
fluorescence lifetime (in CO): 0.83 ns
fluorescence lifetime (in CS(C)=O): 1.11 ns
fluorescence lifetime (in ClC(Cl)Cl): 1.25 ns
fluorescence lifetime (in ClCCl): 1.17 ns
fluorescence lifetime (in O): 0.36 ns

SMILES: Nc1ccccc1/C=C/C(F)(F)F
fluorescence lifetime (in C1CCOC1): 7.32 ns

SMILES: CC1(C)c2ccccc2N(c2ccc(-c3nc(-c4ccccc4)cc(-c4ccccc4)n3)cc2)c2ccccc21
fluorescence lifetime (in Cc1ccccc1): 6.48 ns
fluorescence lifetime (in ClCCl): 18.2 ns

SMILES: CCCCC(CC)CN1C(=O)c2cc(Oc3ccc(OC)cc3)c3c4c(Oc5ccc(C(C)(C)C)cc5)cc5c6c(cc(Oc7ccc(C(C)(C)C)cc7)c(c7c(Oc8ccc(OC)cc8)cc(c2c37)C1=O)c64)C(=O)N(c1c(C(C)C)cccc1C(C)C)C5=O (configuration not stated)
fluorescence lifetime (in Cc1ccccc1): 5.32 ns

SMILES: CC1=C(c2ccccc2)C(C)=[N+]2C1=C(c1ccccc1)c1c(C)c(-c3ccccc3)c(C)n1[B-]2(F)F
fluorescence lifetime (in Cc1ccccc1): 4.1 ns

SMILES: Cc1ccc2c(c1)C(=O)c1ccncc1-2
fluorescence lifetime (in CC#N): 5.3 ns
fluorescence lifetime (in CCOC(C)=O): 7.4 ns
fluorescence lifetime (in Cc1ccccc1): 6.6 ns
fluorescence lifetime (in ClCCl): 5.9 ns

SMILES: C[Si](C)(C)C#CC(C#C[Si](C)(C)C)=Cc1ccc(C=C(C#C[Si](C)(C)C)C#C[Si](C)(C)C)s1
fluorescence lifetime (in ClC(Cl)Cl): 0.3 ns

SMILES: Cn1ccc(-c2nc3ccccc3nc2/C=C/N2CCCC2)c1
fluorescence lifetime (in C1CCCCC1): 1.87 ns
fluorescence lifetime (in C1CCOC1): 6.61 ns
fluorescence lifetime (in CC#N): 5.96 ns
fluorescence lifetime (in CC(C)=O): 6.72 ns
fluorescence lifetime (in CCO): 0.39 ns
fluorescence lifetime (in CO): 0.12 ns
fluorescence lifetime (in CS(C)=O): 5.54 ns
fluorescence lifetime (in Cc1ccccc1): 5.1 ns
fluorescence lifetime (in ClCCl): 8.33 ns

SMILES: COc1ccc(C2=C(c3ccc(C)cc3)C(c3ccccc3)=[N+]3C2=Nc2c(-c4ccc(OC)cc4)c(-c4ccc(C)cc4)c(-c4ccccc4)n2[B-]3(F)F)cc1
fluorescence lifetime (in Cc1ccccc1): 0.23 ns

SMILES: COC(=O)C12N=N[C@](C(=O)OC)(C3C4CCC(C4)C31)C1[C@@H]3CC[C@@H](C3)[C@H]12 (some centres not stated)
fluorescence lifetime (in CC#N): 273 ns

SMILES: Nc1cccnc1
fluorescence lifetime (in C1CCCCC1): 26.5 ns
fluorescence lifetime (in CC#N): 4.6 ns
fluorescence lifetime (in CCO): 6.5 ns
fluorescence lifetime (in CCOCC): 7.7 ns
fluorescence lifetime (in O): 21.1 ns

SMILES: C(=C\c1cc(/C=C/c2ccc(-n3c4ccccc4c4ccccc43)cc2)cc(/C=C/c2ccc(-n3c4ccccc4c4ccccc43)cc2)c1)/c1ccc(-n2c3ccccc3c3ccccc32)cc1
fluorescence lifetime (in C1CCOC1): 4.56 ns
fluorescence lifetime (in CC#N): 3.84 ns
fluorescence lifetime (in Cc1ccccc1): 3.41 ns
fluorescence lifetime (in ClCCl): 3.39 ns

SMILES: N#Cc1cc2ccc(cc2)c2cccc3cccc(c4ccc(cc4)cc(C#N)c4ccc(cc4)c4cccc5cccc(c6ccc1cc6)c54)c32
fluorescence lifetime (in Cc1ccccc1): 20.6 ns

SMILES: CC(C)(C)c1ccc2c(c1)B1c3cc(C(C)(C)C)ccc3Oc3cc(-n4c5ccccc5c5c6c(c7ccccc7n6-c6ccccc6)c6c(c7ccccc7n6-c6ccccc6)c54)cc(c31)O2
fluorescence lifetime (in Cc1ccccc1): 19.6 ns

SMILES: Fc1c(-n2c3ccccc3c3ccccc32)c(F)c(-n2c3ccccc3c3ccccc32)c(-c2nnc(-c3ccccc3)o2)c1-n1c2ccccc2c2ccccc21
fluorescence lifetime (in Cc1ccccc1): 3.9 ns

SMILES: CN(C)c1ccc(/C=C/C=C/c2ccc(C#N)cc2)cc1
fluorescence lifetime (in C1CCOC1): 0.35 ns
fluorescence lifetime (in CC#N): 0.56 ns
fluorescence lifetime (in CCCCCC): 0.28 ns
fluorescence lifetime (in CCCCOCCCC): 0.28 ns
fluorescence lifetime (in CCO): 0.51 ns
fluorescence lifetime (in CCOCC): 0.32 ns

SMILES: O=C1c2cc(F)ccc2-c2cnccc21
fluorescence lifetime (in CC#N): 5.6 ns
fluorescence lifetime (in CCOC(C)=O): 6.6 ns
fluorescence lifetime (in Cc1ccccc1): 4.5 ns
fluorescence lifetime (in ClCCl): 6.3 ns

SMILES: CCOC(=O)c1ccc(NC(=O)COc2cc3c4c([nH]c3c(C)c2C)C(=O)CCC4)cc1
fluorescence lifetime (in C1COCCO1): 1.23 ns
fluorescence lifetime (in CC#N): 1.04 ns
fluorescence lifetime (in CCO): 1.26 ns
fluorescence lifetime (in CS(C)=O): 2.12 ns
fluorescence lifetime (in Cc1ccccc1): 1.1 ns

SMILES: c1ccc([B-]2(c3ccccc3)Oc3ccc4ccccc4c3-c3c4ccccc4nc[n+]32)cc1
fluorescence lifetime (in Cc1ccccc1): 9.59 ns

SMILES: N#Cc1cccc(C#N)c1-n1c2ccccc2c2cc(-c3ccc4c(c3)c3ccccc3n4-c3c(C#N)cccc3C#N)ccc21
fluorescence lifetime (in Cc1ccccc1): 28 ns

SMILES: O=c1cc[nH]c(=O)[nH]1
fluorescence lifetime (in CC#N): 0.0001 ns

SMILES: Cc1ccc(N(c2ccc(C)cc2)c2ccc(-c3ccc4c(c3)C(=O)c3ccccc3C4=O)cc2)cc1
fluorescence lifetime (in CCCCCC): 6.89 ns
fluorescence lifetime (in CCOCC): 1.27 ns
fluorescence lifetime (in Cc1ccccc1): 5.75 ns
fluorescence lifetime (in ClC(Cl)(Cl)Cl): 9.25 ns

SMILES: COc1cc(OC)c2cc(C#N)c(=N)oc2c1
fluorescence lifetime (in ClCCl): 2.4 ns

Other lines, results leading:

fluorescence lifetime (in CCO): 1.94 ns
SMILES: Cc1cc(C)c(-c2nnc(-c3ccc(-n4c5ccccc5c5ccccc54)c(C)c3)o2)c(C)c1

fluorescence lifetime (in C1CCOC1): 5.8 ns
SMILES: C[Si](C)(C)c1ccc(-c2ccc(-c3ccc(-c4ccc(-c5ccc([Si](C)(C)C)s5)s4)c4nsnc34)s2)s1

fluorescence lifetime (in ClCCl): 1.27 ns
SMILES: CC(C)(C)c1ccc2c(c1)c1cc(C(C)(C)C)ccc1n2-c1ccc(C#Cc2ccc3c4ccc(C#Cc5ccc(/C=C(/C#N)C(=O)O)cc5)cc4n(-c4ccc(C(F)(F)F)cc4)c3c2)cc1

fluorescence lifetime (in c1ccccc1): 4.8 ns
SMILES: O=c1oc2ccc3ccc(O)cc3c2nc1-c1ccccc1

fluorescence lifetime (in C1CCOC1): 2.1 ns
SMILES: CCC1(CC)c2cc(N(c3ccccc3)c3ccccc3)ccc2-c2c1c1c(c3c2C(CC)(CC)c2cc(N(c4ccccc4)c4ccccc4)ccc2-3)C(CC)(CC)c2cc(N(c3ccccc3)c3ccccc3)ccc2-1

fluorescence lifetime (in CN(C)C=O): 2.9 ns
SMILES: Nc1ccc(N2C(=O)c3ccc4c5ccc6c7c(ccc(c8ccc(c3c48)C2=O)c75)C(=O)NC6=O)cc1

fluorescence lifetime (in ClC(Cl)Cl): 0.5 ns
SMILES: O=Cc1ccc(C#CC(C#Cc2ccc(C=O)s2)=Cc2ccc(C=C(C#Cc3ccc(C=O)s3)C#Cc3ccc(C=O)s3)s2)s1

fluorescence lifetime (in CC#N): 3.92 ns
SMILES: N#Cc1cc(C#Cc2c(F)c(F)nc(F)c2F)c(C#Cc2c(F)c(F)nc(F)c2F)cc1C#N

fluorescence lifetime (in CO): 21.6 ns
SMILES: CCOC(=O)CCCCCn1c2ccccc2c(=O)c2cc3c(cc21)c(=O)c1ccccc1n3CCCCCC(=O)OCC

fluorescence lifetime (in C1COCCO1): 0.07 ns
fluorescence lifetime (in CC#N): 0.27 ns
fluorescence lifetime (in CCO): 0.21 ns
fluorescence lifetime (in OCC(F)(F)F): 0.72 ns
SMILES: Cc1cc(=O)oc2c1cc(Cl)c1occ(C)c12

fluorescence lifetime (in ClCCl): 6.1 ns
SMILES: COC(=O)c1[nH]c(-c2ccc(OC)cc2)c2nnc3ccc(OC)cc3c12

fluorescence lifetime (in CCO): 18 ns
SMILES: Cc1cc(C)c2cc3cc(C)ncc3cc2c1

fluorescence lifetime (in ClC(Cl)Cl): 15.4 ns
SMILES: CCCCCCN1C(=O)c2cccc3cc(/N=C\c4ccc(N(c5ccccc5)c5ccccc5)cc4)cc(c23)C1=O

fluorescence lifetime (in CC(C)O): 2.69 ns
fluorescence lifetime (in CCCCCCCCO): 3.18 ns
fluorescence lifetime (in CCCCCCO): 3.09 ns
fluorescence lifetime (in CCCCO): 2.98 ns
fluorescence lifetime (in CCCO): 2.79 ns
fluorescence lifetime (in CCO): 2.45 ns
fluorescence lifetime (in CO): 2.15 ns
fluorescence lifetime (in O): 1.52 ns
fluorescence lifetime (in [2H]O[2H]): 1.64 ns
SMILES: CCN(CC)c1ccc2c(c1)OC1=CC(N(CC)CC)C=CC1[C+]2c1ccccc1C(=O)O (configuration not stated)

fluorescence lifetime (in ClC(Cl)Cl): 6.62 ns
SMILES: c1ccc(N(c2ccccc2)c2ccc(-c3ccc(-c4ccc(-c5cccs5)c5nsnc45)s3)cc2)cc1

fluorescence lifetime (in CCCCCCC): 108 ns
SMILES: CC(=O)Nc1cc2ccc3cccc4ccc(c1)c2c34

fluorescence lifetime (in ClCCl): 1.6 ns
SMILES: COCCOCCOCCOCC(COCCOCCOCCOC)Oc1cc(/C=C/c2ccc(/C=C(\C#N)c3ccc(C(F)(F)F)cc3)cc2)c(OC(COCCOCCOCCOC)COCCOCCOCCOC)cc1/C=C/c1ccc(/C=C(\C#N)c2ccc(C(F)(F)F)cc2)cc1

fluorescence lifetime (in ClCCl): 2.8 ns
SMILES: COc1ccc(-c2c3ccccc3c(C#Cc3ccccc3)c3ccccc23)cc1

fluorescence lifetime (in ClCCl): 9.5 ns
SMILES: O=C1c2ccccc2-c2nc3c(F)c(F)c(F)c(F)c3n21

fluorescence lifetime (in ClC(Cl)Cl): 0.462 ns
SMILES: CCCCCCN1C(=O)c2cccc3c(-c4sc(-c5ccc6c7c(cccc57)C(=O)N(CCCCCC)C6=O)c5c4OCCO5)ccc(c23)C1=O

fluorescence lifetime (in O): 3.87 ns
SMILES: Nc1cc([NH3+])cc(-c2nc3ccccc3s2)c1

fluorescence lifetime (in ClCCl): 2.96 ns
SMILES: Nc1ccc2c(ccc3[n+]2[B-](F)(F)n2c-3cc3c4ccccc4c4ccccc4c32)c1

fluorescence lifetime (in ClCCl): 1.12 ns
SMILES: CC(C)c1cccc(C(C)C)c1N1C(=O)c2cccc3c(Oc4ccc(C(C)(C)C)cc4)ccc(c23)C1=O

fluorescence lifetime (in C1CCCCC1): 2.5 ns
SMILES: Oc1ccccc1

fluorescence lifetime (in CC#N): 4.9 ns
SMILES: Cc1ccc2nc3c(=O)n(C)c(=O)nc-3n(C)c2c1

fluorescence lifetime (in C1CCOC1): 1.64 ns
SMILES: CN(C)c1ccc(C2=Nc3scc(-c4ccc([N+](=O)[O-])cc4)[n+]3[B-](F)(F)O2)cc1

fluorescence lifetime (in ClCCl): 11.1 ns
SMILES: O=c1c2cccc3cccc(c32)c2nc3ccccc3n12

fluorescence lifetime (in CCCCCC): 6.1 ns
fluorescence lifetime (in CO): 6.31 ns
fluorescence lifetime (in ClCCl): 5.93 ns
SMILES: CC1=CC(C)=[N+]2C1=C(C)c1cccn1[B-]2(F)F

fluorescence lifetime (in C1CCOC1): 1.6 ns
SMILES: CCC1(CC)c2ccccc2-c2c1c1c(c3c2C(CC)(CC)c2cc(N(c4ccccc4)c4ccccc4)ccc2-3)C(CC)(CC)c2ccccc2-1

fluorescence lifetime (in ClC(Cl)Cl): 1.06 ns
SMILES: Cc1ccc(N(c2ccc(C)cc2)c2ccc(-c3ccc(C=C(C#N)C#N)cc3)cc2)cc1

fluorescence lifetime (in CC1CCCCC1): 0.3 ns
fluorescence lifetime (in CC#N): 1.44 ns
fluorescence lifetime (in CO): 1.33 ns
SMILES: COC(=O)C(NC(=O)OC(C)(C)C)c1ccc2oc(-c3ccc(O)cc3O)nc2c1 (configuration not stated)

fluorescence lifetime (in ClC(Cl)Cl): 2.6 ns
SMILES: N=c1oc2cccc3c4c(-c5ccccc5)oc5cccc(c(c1-c1ccccc1)c23)c54

fluorescence lifetime (in ClC(Cl)Cl): 5.48 ns
SMILES: CCCCn1c(=O)c2cc3ccc4cccc5ccc(c2c1=O)c3c45

fluorescence lifetime (in ClCCl): 1.22 ns
SMILES: CCCCCCOc1cc(/C=C/c2cc(OCCCCCC)c(/C=C/c3cc(OCCCCCC)c(C=C4C(=O)c5ccccc5C4=O)cc3OCCCCCC)cc2OCCCCCC)c(OCCCCCC)cc1C=C1C(=O)c2ccccc2C1=O

fluorescence lifetime (in CC#N): 1.85 ns
fluorescence lifetime (in CC(C)O): 0.6 ns
fluorescence lifetime (in CCO): 0.47 ns
fluorescence lifetime (in CCOC(C)=O): 2.01 ns
fluorescence lifetime (in CO): 0.34 ns
SMILES: Nc1ccc2c(c1)C(=O)c1ccc(N)cc1C2=O
